From ChEMBL document CHEMBL5579865, “Discovery of Broad-Spectrum Herpes Antiviral Oxazolidinone Amide Derivatives and Their Structure-Activity Relationships” (ACS Med Chem Lett, 2024)
In brackets after ≈: the same amount, converted by molar mass. Activity calls are given as the source filed them. The rule behind the calls is not given here.

Experiments:
[1] = Inhibition of HCMV DNA polymerase extracted from baculovirus infected Sf21 cells using Heterodimeric nucleic acid as substrate preincubated with enzyme for 30 mins followed by substrate and dATP addition measured after 60 mins by biotinylated UTP incorporation based AlphaLISA assay; set-up: species or system Human betaherpesvirus 5
[2] = Inhibition of VZV DNA polymerase extracted from baculovirus infected Sf21 cells using Heterodimeric nucleic acid as substrate preincubated with enzyme for 30 mins followed by substrate and dATP addition measured after 60 mins by biotinylated UTP incorporation based AlphaLISA assay; set-up: species or system Human alphaherpesvirus 3
[3] = tested on: Human betaherpesvirus 5; assay: Antiviral activity against HCMV AD169 infected in human MRC5 cells assessed as reduction in viral replication incubated for 72 hrs in presence of 10 % serum by qRT-PCR analysis; assay type: functional, organism-based; conditions: Human betaherpesvirus 5, AD169, MRC5, 72 h
[4] = tested on: Human alphaherpesvirus 3; assay: Antiviral activity against VZV Street infected in human MeWo cells assessed as reduction in viral replication incubated for 72 hrs by qRT-PCR analysis; assay type: functional, organism-based
[5] = tested on: Human alphaherpesvirus 1; assay: Antiviral activity against HSV-1 F strain infected in African green monkey Vero cells assessed as reduction in viral replication incubated for 72 hrs by qRT-PCR analysis; assay type: functional, organism-based
[6] = tested on: Human alphaherpesvirus 2; assay: Antiviral activity against HSV-2 G strain infected in African green monkey Vero cells assessed as reduction in viral replication incubated for 72 hrs by qRT-PCR analysis; assay type: functional, organism-based
[7] = tested on: Cytomegalovirus; assay: Antiviral activity against Cytomegalovirus Smith intraperitoneally infected in BALB/c mouse assessed as reduction in viral burden in salivary gland at 25 mg/kg,ip qd administration measured after 10 days by plaque assay; assay type: functional, organism-based; conditions: time 10.0 day
[8] = tested on: Cytomegalovirus; assay: Antiviral activity against Cytomegalovirus Smith intraperitoneally infected in BALB/c mouse assessed as reduction in viral burden in salivary gland at 50 mg/kg,po bid administration measured after 10 days by plaque assay; assay type: functional, organism-based; conditions: route ip, time 10.0 day
[9] = tested on: Human betaherpesvirus 5; assay: Antiviral activity against HCMV AD169 infected in human MRC5 cells assessed as reduction in viral replication incubated for 72 hrs in presence of 50 % serum by qRT-PCR analysis; assay type: functional, organism-based; conditions: Human betaherpesvirus 5, AD169, MRC5, 72 h; read-out: EC50
[10] = Unbound clearance in Wistar rat at 0.05 mg/kg,iv administration; assay type: ADME, organism-based; conditions: in vivo
[11] = Unbound volume of distribution in Wistar rat at 0.05 mg/kg,iv or 10 mg/kg,po administration; assay type: ADME, organism-based; conditions: in vivo
[12] = MRT in Wistar rat at 0.05 mg/kg,iv or 10 mg/kg,po administration; assay type: ADME, organism-based; conditions: in vivo
[13] = Unbound AUC in Wistar rat at 0.05 mg/kg,iv or 10 mg/kg,po administration; assay type: ADME, organism-based; conditions: in vivo
[14] = Unbound fraction in Wistar rat plasma at 0.05 mg/kg,iv or 10 mg/kg,po administration; assay type: ADME, organism-based
[15] = Inhibition of Inward-rectifier potassium channel (unknown origin); set-up: species or system Homo sapiens
[16] = target: Voltage-dependent L-type calcium channel subunit alpha-1C (Homo sapiens, UniProt Q13936); assay: Inhibition of Cav1.2 (unknown origin)
[17] = target: Sodium channel protein type 5 subunit alpha (Homo sapiens, UniProt Q14524); assay: Inhibition of Nav1.5 (unknown origin)
[18] = Solubility in PBS at pH 7; assay type: physicochemical
[19] = Metabolic stability in human liver microsomes assessed as intrinsic clearance; assay type: ADME, Microsome; conditions: read-out: CLH
[20] = Unbound clearance in Wistar rat at 3 mg/kg,iv administration; assay type: ADME, organism-based; conditions: in vivo
[21] = Unbound volume of distribution in Wistar rat at 3 mg/kg,iv or 10 mg/kg,po administration; assay type: ADME, organism-based; conditions: in vivo
[22] = MRT in Wistar rat at 3 mg/kg,iv or 10 mg/kg,po administration; assay type: ADME, organism-based; conditions: in vivo
[23] = Oral bioavailability in Wistar rat at 10 mg/kg administration; assay type: ADME, organism-based; conditions: in vivo
[24] = Unbound AUC in Wistar rat at 3 mg/kg,iv or 10 mg/kg,po administration; assay type: ADME, organism-based; conditions: in vivo
[25] = Unbound fraction in Wistar rat plasma at 3 mg/kg,iv or 10 mg/kg,po administration; assay type: ADME, organism-based
[26] = target: Voltage-gated inwardly rectifying potassium channel KCNH2 (Homo sapiens, UniProt Q12809); assay: Inhibition of hERG by patch-clamp assay; assay type: toxicity
[27] = tested on: Human alphaherpesvirus 3; assay: Antiviral activity against VZV Street infected in human MRC5 cells assessed as reduction in viral replication incubated for 72 hrs by qRT-PCR analysis; assay type: functional, organism-based; conditions: Human alphaherpesvirus 3, Street, MRC5, 72 h
[28] = Human alphaherpesvirus 3, Street, MeWo, 72 h, read-out: EC50
[29] = Human alphaherpesvirus 1, F strain, Vero, 72 h, read-out: EC50
[30] = Human alphaherpesvirus 2, G strain, Vero, 72 h, read-out: EC50

Chain of Voltage-dependent L-type calcium channel subunit alpha-1C (Q13936 whole entry): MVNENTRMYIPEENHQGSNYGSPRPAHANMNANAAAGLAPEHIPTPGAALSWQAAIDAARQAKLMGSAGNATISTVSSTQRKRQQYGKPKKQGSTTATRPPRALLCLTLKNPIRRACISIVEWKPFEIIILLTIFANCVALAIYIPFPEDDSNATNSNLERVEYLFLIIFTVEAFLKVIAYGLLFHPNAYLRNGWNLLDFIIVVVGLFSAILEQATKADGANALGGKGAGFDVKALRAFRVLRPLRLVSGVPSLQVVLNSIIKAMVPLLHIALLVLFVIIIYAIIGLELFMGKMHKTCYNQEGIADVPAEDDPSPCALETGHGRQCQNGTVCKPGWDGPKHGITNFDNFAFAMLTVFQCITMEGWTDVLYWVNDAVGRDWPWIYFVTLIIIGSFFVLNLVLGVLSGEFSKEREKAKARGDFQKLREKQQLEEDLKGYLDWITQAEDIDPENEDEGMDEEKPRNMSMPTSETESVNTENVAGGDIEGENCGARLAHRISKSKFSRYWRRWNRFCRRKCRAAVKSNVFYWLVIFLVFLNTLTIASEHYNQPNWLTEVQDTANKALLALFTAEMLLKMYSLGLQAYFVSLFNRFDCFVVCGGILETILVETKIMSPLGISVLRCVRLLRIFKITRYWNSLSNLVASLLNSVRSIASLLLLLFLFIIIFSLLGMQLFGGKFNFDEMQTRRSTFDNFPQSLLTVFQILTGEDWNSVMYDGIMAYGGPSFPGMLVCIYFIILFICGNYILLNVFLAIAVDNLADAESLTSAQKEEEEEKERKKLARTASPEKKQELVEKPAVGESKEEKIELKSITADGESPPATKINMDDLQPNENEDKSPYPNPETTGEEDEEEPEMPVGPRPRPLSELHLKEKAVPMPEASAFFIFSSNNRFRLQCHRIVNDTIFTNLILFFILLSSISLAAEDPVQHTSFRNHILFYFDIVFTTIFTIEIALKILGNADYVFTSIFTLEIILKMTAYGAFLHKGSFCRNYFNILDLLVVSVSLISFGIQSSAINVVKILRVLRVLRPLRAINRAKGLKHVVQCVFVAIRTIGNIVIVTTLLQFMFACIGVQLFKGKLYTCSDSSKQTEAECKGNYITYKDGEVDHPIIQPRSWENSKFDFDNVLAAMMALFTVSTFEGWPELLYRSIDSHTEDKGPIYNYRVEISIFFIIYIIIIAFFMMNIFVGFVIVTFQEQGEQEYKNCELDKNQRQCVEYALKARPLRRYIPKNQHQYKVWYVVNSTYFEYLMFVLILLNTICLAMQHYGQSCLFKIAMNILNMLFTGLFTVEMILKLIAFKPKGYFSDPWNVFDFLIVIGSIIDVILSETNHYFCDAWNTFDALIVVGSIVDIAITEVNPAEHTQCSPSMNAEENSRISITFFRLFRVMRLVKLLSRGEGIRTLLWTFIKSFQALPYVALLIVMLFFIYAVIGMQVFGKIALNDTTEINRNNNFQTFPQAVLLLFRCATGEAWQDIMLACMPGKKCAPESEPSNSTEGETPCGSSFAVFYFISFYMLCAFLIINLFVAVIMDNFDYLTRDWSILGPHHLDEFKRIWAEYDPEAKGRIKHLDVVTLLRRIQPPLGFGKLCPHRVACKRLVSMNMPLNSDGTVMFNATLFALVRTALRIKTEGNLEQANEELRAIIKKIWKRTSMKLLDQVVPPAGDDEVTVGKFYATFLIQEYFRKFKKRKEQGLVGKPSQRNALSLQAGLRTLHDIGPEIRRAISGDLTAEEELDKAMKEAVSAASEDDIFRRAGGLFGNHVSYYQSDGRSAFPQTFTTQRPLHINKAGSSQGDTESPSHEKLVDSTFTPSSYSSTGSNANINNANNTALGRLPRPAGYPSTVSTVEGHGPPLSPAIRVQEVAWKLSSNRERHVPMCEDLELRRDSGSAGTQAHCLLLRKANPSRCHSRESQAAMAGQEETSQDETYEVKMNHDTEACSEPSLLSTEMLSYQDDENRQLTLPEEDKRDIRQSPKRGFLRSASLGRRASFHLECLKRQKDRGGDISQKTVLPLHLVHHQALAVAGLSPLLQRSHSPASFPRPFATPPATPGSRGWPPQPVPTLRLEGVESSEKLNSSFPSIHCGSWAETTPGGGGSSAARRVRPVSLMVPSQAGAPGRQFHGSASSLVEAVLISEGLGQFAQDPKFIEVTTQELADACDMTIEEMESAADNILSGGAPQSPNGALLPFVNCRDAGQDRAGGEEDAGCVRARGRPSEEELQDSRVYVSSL
Chain of Sodium channel protein type 5 subunit alpha (Q14524 whole entry): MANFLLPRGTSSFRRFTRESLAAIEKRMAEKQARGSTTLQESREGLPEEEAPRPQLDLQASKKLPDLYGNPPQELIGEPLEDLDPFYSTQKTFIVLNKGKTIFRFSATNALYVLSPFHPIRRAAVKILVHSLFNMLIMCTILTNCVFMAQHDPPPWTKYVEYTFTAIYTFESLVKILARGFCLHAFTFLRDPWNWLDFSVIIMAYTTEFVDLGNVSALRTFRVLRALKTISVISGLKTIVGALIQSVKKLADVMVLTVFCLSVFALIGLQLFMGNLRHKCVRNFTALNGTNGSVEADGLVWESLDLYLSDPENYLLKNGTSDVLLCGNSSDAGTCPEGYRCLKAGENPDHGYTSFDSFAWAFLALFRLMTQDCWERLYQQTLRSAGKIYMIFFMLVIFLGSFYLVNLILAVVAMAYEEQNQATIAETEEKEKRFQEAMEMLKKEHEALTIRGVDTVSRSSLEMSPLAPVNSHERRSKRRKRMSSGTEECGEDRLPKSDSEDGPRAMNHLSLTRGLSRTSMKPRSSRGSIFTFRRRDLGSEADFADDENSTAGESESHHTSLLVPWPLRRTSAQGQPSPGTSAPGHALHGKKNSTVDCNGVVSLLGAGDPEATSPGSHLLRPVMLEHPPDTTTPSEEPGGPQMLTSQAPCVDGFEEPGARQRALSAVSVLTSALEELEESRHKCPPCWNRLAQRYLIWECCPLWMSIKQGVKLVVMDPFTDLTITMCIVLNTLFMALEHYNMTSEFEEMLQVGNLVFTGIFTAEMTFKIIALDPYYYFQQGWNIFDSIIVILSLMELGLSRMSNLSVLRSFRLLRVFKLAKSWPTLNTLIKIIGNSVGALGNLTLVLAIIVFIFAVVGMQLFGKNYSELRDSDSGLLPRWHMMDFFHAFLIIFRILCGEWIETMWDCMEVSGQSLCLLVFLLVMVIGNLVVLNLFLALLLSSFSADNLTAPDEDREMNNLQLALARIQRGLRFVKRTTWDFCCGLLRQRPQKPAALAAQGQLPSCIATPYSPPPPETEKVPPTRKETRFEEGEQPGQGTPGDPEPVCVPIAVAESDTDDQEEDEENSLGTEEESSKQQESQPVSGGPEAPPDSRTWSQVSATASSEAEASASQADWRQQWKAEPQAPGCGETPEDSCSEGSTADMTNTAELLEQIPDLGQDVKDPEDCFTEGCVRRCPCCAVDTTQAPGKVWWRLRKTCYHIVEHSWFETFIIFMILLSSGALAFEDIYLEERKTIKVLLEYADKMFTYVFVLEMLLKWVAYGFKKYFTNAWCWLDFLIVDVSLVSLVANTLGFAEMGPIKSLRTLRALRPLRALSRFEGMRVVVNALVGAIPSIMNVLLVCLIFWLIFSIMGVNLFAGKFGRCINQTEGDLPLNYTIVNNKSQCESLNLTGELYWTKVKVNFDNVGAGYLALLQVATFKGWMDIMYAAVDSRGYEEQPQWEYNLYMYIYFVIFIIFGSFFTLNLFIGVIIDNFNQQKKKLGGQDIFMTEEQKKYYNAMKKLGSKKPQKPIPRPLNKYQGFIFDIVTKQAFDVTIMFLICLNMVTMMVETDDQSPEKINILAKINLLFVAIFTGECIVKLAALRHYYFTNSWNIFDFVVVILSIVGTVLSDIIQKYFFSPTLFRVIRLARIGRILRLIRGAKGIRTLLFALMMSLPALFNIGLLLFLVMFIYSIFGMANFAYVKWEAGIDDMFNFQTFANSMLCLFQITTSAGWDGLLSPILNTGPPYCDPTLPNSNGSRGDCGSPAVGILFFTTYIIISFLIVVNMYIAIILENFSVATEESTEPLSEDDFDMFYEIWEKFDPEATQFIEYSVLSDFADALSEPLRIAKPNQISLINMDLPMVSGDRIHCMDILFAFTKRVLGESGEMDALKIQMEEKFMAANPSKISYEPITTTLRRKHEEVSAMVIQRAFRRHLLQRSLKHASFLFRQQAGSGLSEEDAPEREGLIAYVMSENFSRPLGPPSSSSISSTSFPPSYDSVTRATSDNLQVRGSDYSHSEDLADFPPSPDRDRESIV

Row | SMILES | IC50 [1] [nM] | IC50 [2] [nM] | EC50 [3] [nM] | EC50 [4] | EC50 [5] | EC50 [6] | EC50 [9] [nM] | EC50 [4, 28] [nM] | EC50 [5, 29] [nM] | EC50 [6, 30] [nM] | CL free [10] [mL/min/kg] | Vdu [11] [L/kg] | MRT [12] [min] | fAUC [13] [nM·h] | fraction unbound [14] | IC50 [15] [nM] | IC50 [16] [nM] | IC50 [17] [nM] | solubility [18] [µM] | CLint scaled [19] [mL/min/kg] | other results
1 | O=C1N[C@@H](Cc2ccc3c(c2)CCN(Cc2ccc(Cl)cc2)C3=O)CO1 | 27600 | 40300 | 44200 | Not Active | Not Active | Not Active |  |  |  |  |  |  |  |  |  |  |  |  |  |  | 
2 | Nc1nc2c(ncn2COC(CO)CO)c(=O)[nH]1 |  |  |  |  |  |  |  |  |  |  |  |  |  |  |  |  |  |  |  |  | Activity [7]: inactive; Activity [8]: inactive
3 | COc1cc(NC(=O)Cc2ccc(Cl)cc2Cl)ccc1C[C@H]1COC(=O)N1 | 16 | 12 |  |  |  |  | 349 | 154 | 198 | 222 | 720 | 33 | 42 | 3 | 0.022 | 20900 | 9600 | 8200 | 28 (≈ 11.5 µg/mL) | 20 | 
4 | COc1nc(NC(=O)Cc2ccc(Cl)cc2)ccc1C[C@H]1COC(=O)N1 | 44 | 15 |  |  |  |  | 249 | 46 | 70 | 85 |  |  |  |  |  | 14200 | 13500 | 10000 |  |  | CL free [20]: 444 mL/min/kg; Vdu [21]: 15 L/kg; MRT [22]: 36 min; bioavailability [23]: 62%; fAUC [24]: 299 nM·h; fraction unbound [25]: 0.025; IC50 [26]: 16000 nM
5 | O=C(Nc1ccc(Cl)cc1)Nc1ccc(C[C@H]2COC(=O)N2)cc1 | 480 | 210 | 1110 | Not Active | Not Active | Not Active |  |  |  |  |  |  |  |  |  |  |  |  |  |  | 
6 | COc1cc(NC(=O)Cc2ccc(Br)cc2)ccc1C[C@H]1COC(=O)N1 | < 4 | < 4 |  |  |  |  | 420 |  | 124 | 110 | 1168 | 68 | 54 | 2 | 0.022 | 21100 | 11100 | 12100 | 90 (≈ 37.7 µg/mL) | < 16 | EC50 [27]: 231 nM; bioavailability [23]: 23%
